Biological target: His-mASPDH (mouse ASPDH) (Mus musculus, UniProt Q9DCQ2)
Experiment: ITC, one-site model
Format: binding

His-mASPDH (mouse ASPDH), sequence (Q9DCQ2 whole entry): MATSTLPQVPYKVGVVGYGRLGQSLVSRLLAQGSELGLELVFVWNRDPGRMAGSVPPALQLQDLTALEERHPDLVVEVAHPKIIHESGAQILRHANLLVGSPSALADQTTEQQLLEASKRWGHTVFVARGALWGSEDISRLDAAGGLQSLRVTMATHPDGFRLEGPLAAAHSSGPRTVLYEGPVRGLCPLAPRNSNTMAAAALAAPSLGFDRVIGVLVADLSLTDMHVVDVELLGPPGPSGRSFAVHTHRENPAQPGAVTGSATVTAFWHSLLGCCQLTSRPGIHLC

Row | Structure (SMILES) | Kd
1 | Nc1ncnc2c1ncn2[C@@H]1O[C@H](COP(=O)(O)OP(=O)(O)OC[C@H]2O[C@@H]([n+]3cccc(C(=O)O)c3)[C@H](O)[C@@H]2O)[C@@H](O)[C@H]1OP(=O)(O)O [NAADP] | 0.455 ± 0.231 µM
2 | NC(=O)c1ccc[n+]([C@@H]2O[C@H](COP(=O)(O)OP(=O)(O)OC[C@H]3O[C@@H](n4cnc5c(N)ncnc54)[C@H](OP(=O)(O)O)[C@@H]3O)[C@@H](O)[C@H]2O)c1 [NADP] | 0.958 ± 0.203 µM

Source: paper doi:10.1101/2022.06.06.494947v1 (biorxiv, 2022)
